This is an account of results in patent publication US5451605A, “1,2-epoxycyclohexanyl and bicyclic aromatic substituted ethyne compounds having retinoid-like biological activity” (Allergan, Inc., priority 1993, dated 1995).

In experiment [1] the test system is ornithine decarboxylase (ODC). Kind of experiment: inhibition of TPA induction of ornithine decarboxylase (ODC). The class given is in vivo. An excerpt:
The retinoid-like activity of these compounds is confirmed through the classic measure of retinoic acid activity involving the effects of retinoic acid on ornithine decarboxylase. The original work on the correlation between retinoic acid and decrease in cell proliferation was done by Verma & Boutwell, Cancer Research, 1977, 37,2196-2201. That reference discloses that ornithine decarboxylase (ODC) activity increased precedent to polyamine biosynthesis. It has been established elsewhere that increases in polyamine synthesis can be correlated or associated with cellular proliferation. Thus, if ODC activity could be inhibited, cell hyperproliferation could be modulated. Although all causes for ODC activity increases are unknown, it is known that 12-0-tetradecanoylphorbol-13-acetate (TPA) induces ODC activity.

Experiment [2] relates to ornithine decarboxylase (ODC). Conditions: general statement, TPA-induced ODC; cited from earlier work.

As usually defined, the IC80 is the concentration needed for an effect of 80%. Read a low IC80 as an effect from little substance.

With `CC1(C)CCCC2(C)OC12C#Cc1ccc2cc(C(=O)O)ccc2c1` (racemic) [Compound 1, 6-[2-(1,2-epoxy-2,6,6-trimethyl-cyclohexan-1-yl)-ethynyl]-2-naphthoic acid], in experiment [1], the IC80 turned out to be 30.5 nM.

On to `CC1=C(/C=C/C(C)=C/C=C/C(C)=C/C(=O)O)C(C)(C)CCC1` [Retinoic acid], for which the “inhibition of TPA induction of ODC activity” value in experiment [2] is “inhibits this induction of ODC activity by TPA”.
